Results reported in patent US9969758B2, “Antimicrobial compounds” (BIOMERIEUX, priority 2014, dated 2018).
Where two headings read alike, the source gives them in different places.

What was measured:
Experiment in all cases: MIC by agar dilution
E. coli (53) = assay type: cell-based, Escherichia coli; settings: E. coli (53); for MIC50 / MIC90 / MIC: Escherichia coli; for MIC50: read-out: MIC50; for MIC90: read-out: MIC90; for MIC: read-out: Modal MIC (most frequent MIC)
Text: (§1) Bacterial isolates. […] These included Citrobacter freundii (n=5), other species of Citrobacter (n=4), Enterobacter aerogenes (n=1), Enterobacter cloacae (n=27), Escherichia coli (n=53), Klebsiella oxytoca (n=5), Klebsiella pneumoniae (n=87), Kluyvera spp (n=1), Proteus mirabilis (n=8), Providencia rettgeri (n=2), Salmonella spp (n=3), and Serratia marcescens (n=1). Among these 197 isolates, there were 128 (65%) carbapenemase producers, including; 87 with NDM-1, 9 with IMP, 11 with KPC, 14 with OXA-48 and 7 with VIM. The majority of the carbapenemase producers jointly produced broad-spectrum β-lactamases (BSBL) or cephalosporinases (AmpC β-lactamases), but the latter are not documented for the sake of clarity.
(§2) Determining the minimum inhibitory concentrations (MIC). All the MICs were determined using an agar dilution method. This required use of a medium without a defined antagonist (peptone-free), prepared as described previously with the inclusion of 2% horse blood lysed with saponin, 25.0 μg/mL of NAD and 25.0 μg/mL of hemin [17]. The compounds tested were dissolved in sterile deionised water and incorporated into the agar medium in a concentration range of 0.0031 to 8.0 μg/mL (0.016 to 32 μg/mL for gram-positive bacteria). All the isolates were prepared at a density equivalent to 0.5 McFarland units in sterile deionised water using a densitometer (approximately 1.5×10^8 CFU/mL), and then diluted to 1 for 15. An aliquot of 1 μL of each diluted suspension was then placed onto plates with a multispot inoculator to give the final recommended inoculation of 10 000 CFU/spot. The MICs of fosfomycin were determined by the same method, except that the IsoSensitest medium (Oxoid, Basingstoke, United Kingdom) was used, plus 25.0 μg/mL of glucose-6-phosphate (Sigma, Poole, United Kingdom) and an extended range of fosfomycin concentrations. All the dishes (including the antimicrobial-free controls) were incubated for 22 hours at 37° C. All the tests were performed on at least two independent replicates in order to examine the reproducibility.

K. pneumoniae (87) = assay type: cell-based, Klebsiella pneumoniae; settings: Klebsiella pneumoniae, K. pneumoniae (87); for MIC50: read-out: MIC50; for MIC90: read-out: MIC90; for MIC: read-out: Modal MIC (most frequent MIC)
Text: as §1, §2

E. cloacae (27) = assay type: cell-based, Enterobacter cloacae; settings: E. cloacae (27); for MIC50 / MIC90 / MIC: Enterobacter cloacae; for MIC50: read-out: MIC50; for MIC90: read-out: MIC90; for MIC: read-out: Modal MIC (most frequent MIC)
Text: as §1, §2

AmpC (22) = assay type: cell-based, Enterobacteriaceae; settings: for MIC: read-out: Modal MIC (most frequent MIC)
Text: as §1, §2

All S. aureus (50) = assay type: cell-based, Staphylococcus aureus; settings: All S. aureus (50); for MIC50 / MIC90 / MIC: Staphylococcus aureus; for MIC50: read-out: MIC50; for MIC90: read-out: MIC90; for MIC: read-out: Modal MIC (most frequent MIC)
Text: (§3) A collection of 50 isolates of Staphylococci aureus included 36 strains of methicillin-resistant S. aureus (MRSA) frequently encountered in Europe, including strains isolated in Belgium, Finland, France, Germany and the United Kingdom. Another strain of MRSA, NCTC 11939, was included as a control, as well as a methicillin-sensitive control (NCTC 6571). Twelve other isolates of methicillin-sensitive Staphylococcus aureus (MSSA) recently collected from blood cultures were also included. Finally, 50 isolates of enterococci included two control strains (Enterococcus faecalis NCTC 755 and Enterococcus faecium NCTC 7171) and 48 isolates originating from clinical samples obtained from at least three different hospitals. The clinical isolates included E. faecalis (n=10), E. faecium (n=33), Enterococcus casseliflavus (n=3), Enterococcus gallinarum (n=2).
as §2

All Enterococci (50) = assay type: cell-based; settings: All Enterococci (50); for MIC50: read-out: MIC50; for MIC90: read-out: MIC90; for MIC: read-out: Modal MIC (most frequent MIC)
Text: as §3, §2

[1] = tested on: glycopeptide-resistant enterococci; assay type: cell-based; settings: GRE (43); for MIC50: read-out: MIC50; for MIC90: read-out: MIC90
Text: as §3, §2

[2] = tested on: methicillin-resistant Staphylococcus aureus; assay type: cell-based; settings: for MIC50 / MIC90 / MIC: Staphylococcus aureus; for MIC50: read-out: MIC50; for MIC90: read-out: MIC90; for MIC: read-out: Modal MIC (most frequent MIC)
Text: as §3, §2

[3] = tested on: methicillin-sensitive Staphylococcus aureus; assay type: cell-based; settings: MSSA (13); for MIC50 / MIC90 / MIC: Staphylococcus aureus; for MIC50: read-out: MIC50; for MIC90: read-out: MIC90; for MIC: read-out: Modal MIC (most frequent MIC)
Text: as §3, §2

E. faecalis (11) = assay type: cell-based, Enterococcus faecalis; settings: Enterococcus faecalis, E. faecalis (11); for MIC50: read-out: MIC50; for MIC90: read-out: MIC90; for MIC: read-out: Modal MIC (most frequent MIC)
Text: as §3, §2

E. faecium (34) = assay type: cell-based, Enterococcus faecium; settings: Enterococcus faecium, E. faecium (34); for MIC50: read-out: MIC50; for MIC90: read-out: MIC90; for MIC: read-out: Modal MIC (most frequent MIC)
Text: as §3, §2

Enterobacteriaceae (197) = assay type: cell-based; settings: Enterobacteriaceae (197); for MIC50: read-out: MIC50; for MIC90: read-out: MIC90; for MIC: read-out: Modal MIC (most frequent MIC)
Text: as §1, §2

[4] = tested on: Enterobacteriaceae with a broad-spectrum β-lactamase; assay type: cell-based; settings: for MIC: read-out: Modal MIC (most frequent MIC)
Text: as §1, §2

[5] = tested on: carbapenemase-producing Enterobacteriaceae; assay type: cell-based; settings: for MIC: read-out: Modal MIC (most frequent MIC)
Text: as §1, §2

C[C@@H]1O[C@@H]1P(=O)(O)O [Fosfomycin, disodium [(2R,3S)-3-methyloxiran-2-yl] phosphonate]
> 32 µg/mL: MIC90 (K. pneumoniae (87)) | MIC90 (AmpC (22)) | MIC50 (All Enterococci (50)) | MIC90 (All Enterococci (50)) | MIC (All Enterococci (50)) | MIC50 [1] | MIC90 [1] | MIC ([1]; read-out: Modal MIC (most frequent MIC)) | MIC90 (E. faecalis (11)) | MIC50 (E. faecium (34)) | MIC90 (E. faecium (34)) | MIC (E. faecium (34)) | MIC90 (Enterobacteriaceae (197)) | MIC90 ([4]; BSBL (47), read-out: MIC90) | MIC ([4]; BSBL (47))
1 µg/mL: MIC90 (E. coli (53))
16 µg/mL: MIC50 (E. cloacae (27)) | MIC (E. cloacae (27)) | MIC90 (All S. aureus (50)) | MIC90 ([2]; MRSA (37)) | MIC90 [3] | MIC [5]
0.5 µg/mL: MIC50 (E. coli (53)) | MIC (E. coli (53))
32 µg/mL: MIC90 (E. cloacae (27)) | MIC (AmpC (22)) | MIC50 (E. faecalis (11)) | MIC (E. faecalis (11)) | MIC90 [5]
8 µg/mL: MIC50 (K. pneumoniae (87)) | MIC (All S. aureus (50)) | MIC ([2]; MRSA (37)) | MIC50 ([4]; BSBL (47), read-out: MIC50)
2 to 16 µg/mL: MIC Range [3]
4 µg/mL: MIC (K. pneumoniae (87)) | MIC50 (All S. aureus (50)) | MIC50 ([2]; MRSA (37)) | MIC50 [3] | MIC [3] | MIC50 (Enterobacteriaceae (197)) | MIC (Enterobacteriaceae (197)) | MIC50 [5]
0.125 to 8 µg/mL: MIC Range (E. coli (53))

C[C@H](NC(=O)[C@H](CCl)NC(=O)[C@@H](N)CCl)P(=O)(O)O [β-Cl-Ala-β-Cl-Alafosfalin, β-chloro-L-alanyl-β-chloro-L-alanyl-L-1-aminoethylphosphonic acid]
2 to 16 µg/mL: MIC Range (All S. aureus (50)) | MIC Range ([2]; MRSA (37))
16 µg/mL: MIC50 (All S. aureus (50)) | MIC90 (All S. aureus (50)) | MIC (All S. aureus (50)) | MIC90 (All Enterococci (50)) | MIC90 [1] | MIC ([2]; MRSA) | MIC50 ([2]; MRSA (37)) | MIC90 ([2]; MRSA (37)) | MIC50 [3] | MIC90 [3] | MIC [3]
8 µg/mL: MIC50 (All Enterococci (50)) | MIC (All Enterococci (50)) | MIC50 [1] | MIC50 (E. faecium (34)) | MIC90 (E. faecium (34)) | MIC (E. faecium (34)) | MIC90 [5]
2 µg/mL: MIC50 (Enterobacteriaceae (197)) | MIC50 [5]
4 to 16 µg/mL: MIC Range [3]
0.25 to 8 µg/mL: MIC Range (E. cloacae (27))
4 µg/mL: MIC50 (K. pneumoniae (87)) | MIC (K. pneumoniae (87)) | MIC90 (E. cloacae (27)) | MIC90 (E. faecalis (11)) | MIC (Enterobacteriaceae (197)) | MIC50 [4] | MIC [5]
0.25 µg/mL: MIC50 (E. coli (53)) | MIC (E. coli (53)) | MIC50 (E. faecalis (11)) | MIC (E. faecalis (11))
1 µg/mL: MIC90 (E. coli (53)) | MIC50 (E. cloacae (27)) | MIC (E. cloacae (27))
≤0.031-1 ^ μg/mL: MIC Range (E. coli (53))
> 8 µg/mL: MIC90 (K. pneumoniae (87)) | MIC90 (AmpC (22)) | MIC (AmpC (22)) | MIC90 (Enterobacteriaceae (197)) | MIC90 [4] | MIC [4]
